# In patent publication US20030224942A1, “Alkylamino-1,3,5-triazines, processes for their preparation and their use as herbicides and plant growth regulators” (priority 2001, published 2003):
# Key:
# [1] = system: Chenopodium spp., Papaver spp., Polygonum spp., Veronica spp. or Viola spp.; experiment: Post-emergence effect on weeds (greenhouse pot test, visual scoring); format: in vivo, monocotyledonous and dicotyledonous weeds; settings: treated at three-leaf stage; visual scoring after about 3 to 4 weeks; application rate of 0.5 kg and less of active substance per hectare
# [2] = system: Cyperus spp., Echinochloa spp., Digitaria spp., Sagitaria spp. and Scirpus spp.; experiment: Action on harmful plants in rice (paddy rice conditions, visual scoring); format: in vivo, typical rice weeds (gramineous and broad-leaved); settings: applied into the dammed water, visual scoring about three weeks after application
# Summary of the method: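 Rice and typical gramineous and broad-leaved rice weeds grown in closed pots in greenhouse under paddy conditions (2-3 cm water) to three-leaf stage (Echinochloa crus-galli 1.5-leaf), then treated with compounds. Plants kept under optimum greenhouse conditions throughout; effect scored visually.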
Structure (SMILES),herbicidal activity post-emergence against harmful plants [1],herbicidal activity against harmful plants which are typical for rice crops [2]
CC(O)C#Cc1cc(C(C)Nc2nc(N)nc(C(C)(C)F)n2)ccc1F (stereo not drawn) [Product P17.840],very good herbicidal activity,very good herbicidal activity
CC#Cc1ccc(CNc2nc(N)nc(CC)n2)cc1 [Product P6.1583],very good herbicidal activity,very good herbicidal activity
CC(F)c1nc(N)nc(NC(c2cccc(C(F)=C(F)F)c2)C2CC2)n1 (stereo not drawn) [Product P24.1567],very good herbicidal activity,very good herbicidal activity
CC#Cc1ccc(C(C)Nc2nc(N)nc(C(C)F)n2)cc1 (stereo not drawn) [Product P22.1583],very good herbicidal activity,very good herbicidal activity
Cc1nc(N)nc(NCc2cccc(C3CC3)c2)n1 [Product P1.1603],very good herbicidal activity,very good herbicidal activity
CC(C)c1nc(N)nc(NC(c2cccc(C3CC3)c2)C2CC2)n1 (stereo not drawn) [Product P14.1603],very good herbicidal activity,very good herbicidal activity
CC#Cc1ccc(C(C)Nc2nc(N)nc(C(F)CC)n2)cc1 (stereo not drawn) [Product P27.1583],very good herbicidal activity,very good herbicidal activity
C#Cc1cc(C(Nc2nc(N)nc(C(C)(C)F)n2)C2CC2)ccc1F (stereo not drawn) [Product P19.309],very good herbicidal activity,very good herbicidal activity
CCc1nc(N)nc(NC(c2cccc(C3CC3)c2)C2CC2)n1 (stereo not drawn) [Product P9.1603],very good herbicidal activity,very good herbicidal activity
CC(C)c1nc(N)nc(NC(C)c2ccc(F)c(C(F)=C(F)F)c2)n1 (stereo not drawn) [Product P12.5],very good herbicidal activity,very good herbicidal activity
C#Cc1ccc(CNc2nc(C)nc(N)n2)cc1 [Product P1.1580],very good herbicidal activity,very good herbicidal activity
C#Cc1ccc(C(C)Nc2nc(N)nc(C(C)(C)F)n2)cc1C#C (stereo not drawn) [Product P17.358],very good herbicidal activity,very good herbicidal activity
CC(F)C#Cc1cccc(C(C)Nc2nc(N)nc(C(C)(C)F)n2)c1 (stereo not drawn) [Product P17.1597],very good herbicidal activity,very good herbicidal activity
C#Cc1ccc(CNc2nc(N)nc(C(C)F)n2)cc1 (stereo not drawn) [Product P21.1580],very good herbicidal activity,very good herbicidal activity
C#Cc1cc(CNc2nc(N)nc(C(F)CC)n2)ccc1F (stereo not drawn) [Product P26.309],very good herbicidal activity,very good herbicidal activity
CC#Cc1ccc(CNc2nc(N)nc(C(C)(C)F)n2)cc1 [Product P16.1583],very good herbicidal activity,very good herbicidal activity
CC(C)c1nc(N)nc(NC(C)c2cccc(C(F)=C(F)F)c2)n1 (stereo not drawn) [Product P12.1567],very good herbicidal activity,very good herbicidal activity
CCc1nc(N)nc(NCc2ccc(C(F)=C(F)F)cc2)n1 [Product P6.1568],very good herbicidal activity,very good herbicidal activity
CC(F)c1nc(N)nc(NC(c2ccc(C(F)=C(F)F)cc2)C2CC2)n1 (stereo not drawn) [Product P24.1568],very good herbicidal activity,very good herbicidal activity
CC(C)c1nc(N)nc(NC(C)c2cc(F)c(C(F)=C(F)F)c(F)c2)n1 (stereo not drawn) [Product P12.49],very good herbicidal activity,very good herbicidal activity
CCc1nc(N)nc(NC(C)c2cccc(C3CC3)c2)n1 (stereo not drawn) [Product P7.1603],very good herbicidal activity,very good herbicidal activity

Structure (SMILES),herbicidal activity post-emergence against harmful plants [1],herbicidal activity against harmful plants which are typical for rice crops [2]
CC#Cc1cccc(C(C)Nc2nc(C)nc(N)n2)c1 (stereo not drawn) [Product P2.1582],very good herbicidal activity,very good herbicidal activity
C#Cc1ccc(C(C)Nc2nc(N)nc(C(C)(C)F)n2)cc1C (stereo not drawn) [Product P17.335],very good herbicidal activity,very good herbicidal activity
C#Cc1cc(C(Nc2nc(C)nc(N)n2)C2CC2)ccc1F (stereo not drawn) [Product P4.309],very good herbicidal activity,very good herbicidal activity
C#Cc1cccc(CNc2nc(C)nc(N)n2)c1 [Product P1.1579],very good herbicidal activity,very good herbicidal activity
Cc1nc(N)nc(NC(c2ccc(C3CC3)cc2)C2CC2)n1 (stereo not drawn) [Product P4.1604],very good herbicidal activity,very good herbicidal activity
CC#Cc1c(F)cc(C(Nc2nc(N)nc(C(C)(C)F)n2)C2CC2)cc1F (stereo not drawn) [Product P19.428],very good herbicidal activity,very good herbicidal activity
CCc1nc(N)nc(NC(C)c2ccc(C3CC3)cc2)n1 (stereo not drawn) [Product P7.1604],very good herbicidal activity,very good herbicidal activity
C#Cc1cccc(C(C)Nc2nc(N)nc(CC)n2)c1 (stereo not drawn) [Product P7.1579],very good herbicidal activity,very good herbicidal activity
C#Cc1cccc(C(Nc2nc(N)nc(C(F)CC)n2)C2CC2)c1 (stereo not drawn) [Product P29.1579],very good herbicidal activity,very good herbicidal activity
CC(C)c1nc(N)nc(NC(C)c2ccc(C(F)=C(F)F)cc2)n1 (stereo not drawn) [Product P12.1568],very good herbicidal activity,very good herbicidal activity
CCC(F)c1nc(N)nc(NC(C)c2cccc(C(F)=C(F)F)c2)n1 (stereo not drawn) [Product P27.1567],very good herbicidal activity,very good herbicidal activity
C#Cc1c(F)cc(C(Nc2nc(N)nc(C(F)CC)n2)C2CC2)cc1F (stereo not drawn) [Product P29.352],very good herbicidal activity,very good herbicidal activity
CCC(F)c1nc(N)nc(NCc2cc(F)c(C(F)=C(F)F)c(F)c2)n1 (stereo not drawn) [Product P26.49],very good herbicidal activity,very good herbicidal activity
CC#Cc1c(F)cc(CNc2nc(N)nc(C(C)(C)F)n2)cc1F [Product P16.428],very good herbicidal activity,very good herbicidal activity
CC(F)c1nc(N)nc(NCc2cccc(C3CC3)c2)n1 (stereo not drawn) [Product P21.1603],very good herbicidal activity,very good herbicidal activity
CC#Cc1c(F)cc(CNc2nc(C)nc(N)n2)cc1F [Product P1.428],very good herbicidal activity,very good herbicidal activity
CC#Cc1ccc(C(Nc2nc(N)nc(C(C)C)n2)C2CC2)cc1 (stereo not drawn) [Product P14.1583],very good herbicidal activity,very good herbicidal activity
CC#Cc1cc(C(Nc2nc(N)nc(CC)n2)C2CC2)ccc1F (stereo not drawn) [Product P9.384],very good herbicidal activity,very good herbicidal activity
C#Cc1ccc(CNc2nc(N)nc(CC)n2)cc1 [Product P6.1580],very good herbicidal activity,very good herbicidal activity
CC#Cc1cc(CNc2nc(N)nc(C(F)CC)n2)ccc1F (stereo not drawn) [Product P26.384],very good herbicidal activity,very good herbicidal activity
CC(C)(F)c1nc(N)nc(NCc2ccc(F)c(C(F)=C(F)F)c2)n1 [Product P16.5],very good herbicidal activity,very good herbicidal activity
